Values quoted from earlier work in US20120122825A1, “USE OF PICOPLATIN TO TREAT PROSTATE CANCER” (Poniard Pharmaceuticals, Inc., priority 2009, published 2012).

What was measured:
[1] = test system: patients with solid tumors; details: picoplatin and docetaxel combination, 33 patients with solid tumors
[2] = 30 mg/m^2 docetaxel weekly for 5 of 6 weeks plus 5 mg prednisone twice daily

CC(=O)O[C@@]12CO[C@@H]1C[C@H](O)[C@@]1(C)C(=O)[C@H](O)C3=C(C)[C@@H](OC(=O)[C@H](O)[C@@H](NC(=O)OC(C)(C)C)c4ccccc4)C[C@@](O)([C@@H](OC(=O)c4ccccc4)[C@H]21)C3(C)C [docetaxel]
dose limiting toxicity (DLT) dose [1]: 75 mg/m^2 | recommended Phase II dose (PTD) [1]: 75 mg/m^2 | >50% reductions in PSA, share of men (men with HRPC; [2]): 48% | Overall survival (men with HRPC; [2]): 17.4 months | PSA response expected (men with HRPC; docetaxel alone, comparison value): 45%
